Read-outs that look alike come from different tables or passages of the source.
Tests used:
Format in all cases: cell-based, human
HL-60 cells = experiment: Apoptotic ratio by propidium iodide flow cytometry (AC50); conditions: HL-60 cells
Method in brief: (§1)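 AC50 denotes the concentration that induces 50% apoptosis. It was derived from propidium iodide–DNA fluorescence measured by flow cytometry after ethanol fixation and RNase treatment. Cells were seeded at 2×10^5, grown 24 h, then exposed to test compounds for 24 h.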

AGS cells [1] = experiment: as above; conditions: AGS cells
Method in brief: as §1

COLO205 cells = experiment: as above; conditions: COLO205 cells
Method in brief: as §1

AGS cells [2] = experiment: Cell cycle distribution by flow cytometry; conditions: 24 h
Method in brief: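 Human cancer cells (2×10^5 per dish) exposed 24 h to compound at 5–100 μM, or DMSO. Cells ethanol-fixed at −20° C overnight, RNase/Triton-treated at 37° C for 30 min, then stained with propidium iodide. DNA content read by FACScan flow cytometry to give phase distribution.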

HT-29 cells [3] = experiment: Cell cycle distribution by flow cytometry; conditions: for Cell Cycle Distribution G0/G1 / Cell Cycle Distribution G2/M / Cell Cycle Distribution S: 24 h; for Cell cycle arrest, in words: 5-100 μM, 24 h exposure
Method in brief: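 Cells were treated 24 h with compound at 5, 10, 25, 50 or 100 μM, or with DMSO. They were then ethanol-fixed, RNase-treated and stained with propidium iodide. DNA content was measured by FACScan flow cytometry to give cell-cycle phase distribution.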

HT-29 cells [4] = experiment: Cell survival assay (antiproliferative IC50)
Method in brief: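 HT-29 cells in RPMI 1640 with 10% heat-inactivated FBS, 2×10^5 per well, treated next day with compounds from DMSO stocks (0.05% DMSO final) for 24 h, or 1, 3 or 6 days. Growth read by hemocytometer count and CyQUANT total nucleic acid content; IC50 antiproliferative.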

[5] = read-out: Apoptosis-inducing AC50
[6] = Homo sapiens, read-out: Apoptosis-inducing AC50
[7] = Homo sapiens, COLO 205, read-out: Apoptosis-inducing AC50
[8] = Homo sapiens, Table 4, read-out: Apoptosis-inducing AC50 (concentration required for 50% apoptosis)

COc1ccc(-c2oc3c(OC)c(OC)c(OC)c(OC)c3c(=O)c2O)cc1OC [B, 3-hydroxy-5,6,7,8,3′,4-hexamethoxyflavone]
AC50 (HL-60 cells; [5]): 56.5 ± 2.39 µM | AC50 (AGS cells [1]; [5]): > 100 µM | AC50 (COLO205 cells; [5]): > 100 µM | Cell Cycle Distribution G0/G1 (AGS cells [2]; 5 μM, Table 11): 47.1 ± 1.27 | Cell Cycle Distribution G2/M (AGS cells [2]; 5 μM, Table 11): 5.6 ± 0.28 | Cell Cycle Distribution S (AGS cells [2]; 5 μM, Table 11): 45.8 ± 1.20 | Cell Cycle Distribution G0/G1 (AGS cells [2]; 10 μM, Table 11): 46.7 ± 0.92 | Cell Cycle Distribution G2/M (AGS cells [2]; 10 μM, Table 11): 10.4 ± 0.07 | Cell Cycle Distribution S (AGS cells [2]; 10 μM, Table 11): 44.1 ± 0.57 | Cell Cycle Distribution G0/G1 (AGS cells [2]; 25 μM, Table 11): 39.8 ± 0.78 | Cell Cycle Distribution G2/M (AGS cells [2]; 25 μM, Table 11): 6.5 ± 0.07 | Cell Cycle Distribution S (AGS cells [2]; 25 μM, Table 11): 54.2 ± 0.28 | Cell Cycle Distribution G0/G1 (AGS cells [2]; 50 μM, Table 11): 43.1 ± 1.56 | Cell Cycle Distribution G2/M (AGS cells [2]; 50 μM, Table 11): 7.4 ± 0.42 | Cell Cycle Distribution S (AGS cells [2]; 50 μM, Table 11): 51.2 ± 1.06 | Cell Cycle Distribution G0/G1 (AGS cells [2]; 100 μM, Table 11): 46.8 ± 0.28 | Cell Cycle Distribution G2/M (AGS cells [2]; 100 μM, Table 11): 9.3 ± 0.42 | Cell Cycle Distribution S (AGS cells [2]; 100 μM, Table 11): 44.5 ± 0.14 | Cell Cycle Distribution G0/G1 (HT-29 cells [3]; 5 μM): 63.71 ± 1.80 | Cell Cycle Distribution G2/M (HT-29 cells [3]; 5 μM): 6.50 ± 0.37 | Cell Cycle Distribution S (HT-29 cells [3]; 5 μM): 29.8 ± 1.42 | Cell Cycle Distribution G0/G1 (HT-29 cells [3]; 10 μM): 69.27 ± 3.06 | Cell Cycle Distribution G2/M (HT-29 cells [3]; 10 μM): 5.60 ± 0.85 | Cell Cycle Distribution S (HT-29 cells [3]; 10 μM): 25.14 ± 2.21 | Cell Cycle Distribution G0/G1 (HT-29 cells [3]; 25 μM): 70.85 ± 1.84 | Cell Cycle Distribution G2/M (HT-29 cells [3]; 25 μM): 4.37 ± 0.62 | Cell Cycle Distribution S (HT-29 cells [3]; 25 μM): 24.8 ± 1.23 | Cell Cycle Distribution G0/G1 (HT-29 cells [3]; 50 μM): 70.11 ± 1.44 | Cell Cycle Distribution G2/M (HT-29 cells [3]; 50 μM): 10.73 ± 0.47 | Cell Cycle Distribution S (HT-29 cells [3]; 50 μM): 19.18 ± 0.96 | Cell Cycle Distribution G0/G1 (HT-29 cells [3]; 100 μM): 66.75 ± 1.06 | Cell Cycle Distribution G2/M (HT-29 cells [3]; 100 μM): 8.82 ± 0.26 | Cell Cycle Distribution S (HT-29 cells [3]; 100 μM): 24.45 ± 0.80 | IC50 (HT-29 cells [4]): 63.63 ± 0.49 µM

COc1cc(-c2cc(=O)c3c(OC)c(OC)c(OC)c(OC)c3o2)cc(OC)c1OC [F, 5,6,7,8,3′,4′,5′-heptamethoxyflavone, reference compound]
AC50 (HL-60 cells; [6]): > 100 µM | AC50 (AGS cells [1]; [6]): > 100 µM | AC50 (COLO205 cells; [7]): > 100 µM | Cell Cycle Distribution G0/G1 (AGS cells [2]; 5 μM, Table 11): 58.22 ± 1.10 | Cell Cycle Distribution G2/M (AGS cells [2]; 5 μM, Table 11): 14.76 ± 0.94 | Cell Cycle Distribution S (AGS cells [2]; 5 μM, Table 11): 27.02 ± 0.17 | Cell Cycle Distribution G0/G1 (AGS cells [2]; 10 μM, Table 11): 62.41 ± 6.13 | Cell Cycle Distribution G2/M (AGS cells [2]; 10 μM, Table 11): 14.56 ± 0.58 | Cell Cycle Distribution S (AGS cells [2]; 10 μM, Table 11): 23.04 ± 5.55 | Cell Cycle Distribution G0/G1 (AGS cells [2]; 25 μM, Table 11): 62.24 ± 0.71 | Cell Cycle Distribution G2/M (AGS cells [2]; 25 μM, Table 11): 15.34 ± 1.30 | Cell Cycle Distribution S (AGS cells [2]; 25 μM, Table 11): 22.57 ± 2.21 | Cell Cycle Distribution G0/G1 (AGS cells [2]; 50 μM, Table 11): 65.87 ± 0.93 | Cell Cycle Distribution G2/M (AGS cells [2]; 50 μM, Table 11): 13.05 ± 0.98 | Cell Cycle Distribution S (AGS cells [2]; 50 μM, Table 11): 21.08 ± 1.90 | Cell Cycle Distribution G0/G1 (AGS cells [2]; 100 μM, Table 11): 64.22 ± 5.56 | Cell Cycle Distribution G2/M (AGS cells [2]; 100 μM, Table 11): 13.92 ± 1.06 | Cell Cycle Distribution S (AGS cells [2]; 100 μM, Table 11): 21.86 ± 4.50 | Cell Cycle Distribution G0/G1 (HT-29 cells [3]; 5 μM): 70.24 ± 0.52 | Cell Cycle Distribution G2/M (HT-29 cells [3]; 5 μM): 7.11 ± 0.17 | Cell Cycle Distribution S (HT-29 cells [3]; 5 μM): 22.66 ± 0.35 | Cell Cycle Distribution G0/G1 (HT-29 cells [3]; 10 μM): 76.34 ± 0.35 | Cell Cycle Distribution G2/M (HT-29 cells [3]; 10 μM): 7.06 ± 0.42 | Cell Cycle Distribution S (HT-29 cells [3]; 10 μM): 16.61 ± 0.06 | Cell Cycle Distribution G0/G1 (HT-29 cells [3]; 25 μM): 82.19 ± 0.16 | Cell Cycle Distribution G2/M (HT-29 cells [3]; 25 μM): 6.83 ± 0.61 | Cell Cycle Distribution S (HT-29 cells [3]; 25 μM): 10.98 ± 0.45 | Cell Cycle Distribution G0/G1 (HT-29 cells [3]; 50 μM): 88.64 ± 0.27 | Cell Cycle Distribution G2/M (HT-29 cells [3]; 50 μM): 6.25 ± 0.58 | Cell Cycle Distribution S (HT-29 cells [3]; 50 μM): 5.11 ± 0.31 | Cell Cycle Distribution G0/G1 (HT-29 cells [3]; 100 μM): 89.85 ± 0.13 | Cell Cycle Distribution G2/M (HT-29 cells [3]; 100 μM): 6.07 ± 0.06 | Cell Cycle Distribution S (HT-29 cells [3]; 100 μM): 4.10 ± 0.06 | Cell cycle arrest, in words (HT-29 cells [3]): significant accumulation of cells in G1 phase | IC50 (HT-29 cells [4]; Homo sapiens): 96.4 ± 8.66 µM

COc1ccc(-c2cc(=O)c3c(OC)c(OC)c(OC)c(OC)c3o2)cc1OC [Compound A, 5,6,7,8,3′,4′-hexamethoxyflavone, reference compound]
AC50 (HL-60 cells; [8]): > 100 µg/mL | AC50 (HL-60 cells; [6]): > 100 µM | AC50 (AGS cells [1]; [8]): > 100 µg/mL | AC50 (AGS cells [1]; [6]): > 100 µM | AC50 (COLO205 cells; Homo sapiens, COLO 205, Table 4, read-out: Apoptosis-inducing AC50 (concentration required for 50% apoptosis)): > 100 µg/mL | AC50 (COLO205 cells; [7]): > 100 µM | Cell Cycle Distribution G0/G1 (AGS cells [2]; 5 μM, Table 7): 58.67 ± 0.61 | Cell Cycle Distribution G2/M (AGS cells [2]; 5 μM, Table 7): 13.50 ± 1.34 | Cell Cycle Distribution S (AGS cells [2]; 5 μM, Table 7): 27.84 ± 1.94 | Cell Cycle Distribution G0/G1 (AGS cells [2]; 5 μM, Table 11): 44.7 ± 0.71 | Cell Cycle Distribution G2/M (AGS cells [2]; 5 μM, Table 11): 0.4 ± 0.57 | Cell Cycle Distribution S (AGS cells [2]; 5 μM, Table 11): 54.4 ± 0.64 | Cell Cycle Distribution G0/G1 (AGS cells [2]; 10 μM, Table 7): 59.74 ± 0.36 | Cell Cycle Distribution G2/M (AGS cells [2]; 10 μM, Table 7): 13.57 ± 1.23 | Cell Cycle Distribution S (AGS cells [2]; 10 μM, Table 7): 26.70 ± 0.87 | Cell Cycle Distribution G0/G1 (AGS cells [2]; 10 μM, Table 11): 47.1 ± 0.28 | Cell Cycle Distribution G2/M (AGS cells [2]; 10 μM, Table 11): 5.0 ± 0.64 | Cell Cycle Distribution S (AGS cells [2]; 10 μM, Table 11): 49.1 ± 0.64 | Cell Cycle Distribution G0/G1 (AGS cells [2]; 25 μM, Table 7): 59.56 ± 1.98 | Cell Cycle Distribution G2/M (AGS cells [2]; 25 μM, Table 7): 13.50 ± 0.35 | Cell Cycle Distribution S (AGS cells [2]; 25 μM, Table 7): 26.95 ± 2.33 | Cell Cycle Distribution G0/G1 (AGS cells [2]; 25 μM, Table 11): 52.9 ± 1.06 | Cell Cycle Distribution G2/M (AGS cells [2]; 25 μM, Table 11): 2.8 ± 0.35 | Cell Cycle Distribution S (AGS cells [2]; 25 μM, Table 11): 43.7 ± 0.42 | Cell Cycle Distribution G0/G1 (AGS cells [2]; 50 μM, Table 7): 56.45 ± 0.03 | Cell Cycle Distribution G2/M (AGS cells [2]; 50 μM, Table 7): 15.25 ± .33 | Cell Cycle Distribution S (AGS cells [2]; 50 μM, Table 7): 28.31 ± 0.36 | Cell Cycle Distribution G0/G1 (AGS cells [2]; 50 μM, Table 11): 53.8 ± 0.64 | Cell Cycle Distribution G2/M (AGS cells [2]; 50 μM, Table 11): 6.6 ± 0.69 | Cell Cycle Distribution S (AGS cells [2]; 50 μM, Table 11): 41.3 ± 0.92 | Cell Cycle Distribution G0/G1 (AGS cells [2]; 100 μM, Table 7): 46.13 ± 4.96 | Cell Cycle Distribution G2/M (AGS cells [2]; 100 μM, Table 7): 15.54 ± 1.10 | Cell Cycle Distribution S (AGS cells [2]; 100 μM, Table 7): 28.33 ± 3.86 | Cell Cycle Distribution G0/G1 (AGS cells [2]; 100 μM, Table 11): 66.9 ± 0.14 | Cell Cycle Distribution G2/M (AGS cells [2]; 100 μM, Table 11): 3.2 ± 0.57 | Cell Cycle Distribution S (AGS cells [2]; 100 μM, Table 11): 31.0 ± 0.64 | Cell Cycle Distribution G0/G1 (HT-29 cells [3]; 5 μM): 63.67 ± 0.14 | Cell Cycle Distribution G2/M (HT-29 cells [3]; 5 μM): 8.22 ± 0.37 | Cell Cycle Distribution S (HT-29 cells [3]; 5 μM): 28.12 ± 0.52 | Cell Cycle Distribution G0/G1 (HT-29 cells [3]; 10 μM): 66.57 ± 0.66 | Cell Cycle Distribution G2/M (HT-29 cells [3]; 10 μM): 7.45 ± 0.28 | Cell Cycle Distribution S (HT-29 cells [3]; 10 μM): 26.98 ± 0.94 | Cell Cycle Distribution G0/G1 (HT-29 cells [3]; 25 μM): 69.67 ± 1.15 | Cell Cycle Distribution G2/M (HT-29 cells [3]; 25 μM): 7.58 ± 0.00 | Cell Cycle Distribution S (HT-29 cells [3]; 25 μM): 22.76 ± 1.15 | Cell Cycle Distribution G0/G1 (HT-29 cells [3]; 50 μM): 83.26 ± 0.46 | Cell Cycle Distribution G2/M (HT-29 cells [3]; 50 μM): 4.97 ± 0.67 | Cell Cycle Distribution S (HT-29 cells [3]; 50 μM): 11.79 ± 1.13 | Cell Cycle Distribution G0/G1 (HT-29 cells [3]; 100 μM): 89.49 ± 0.57 | Cell Cycle Distribution G2/M (HT-29 cells [3]; 100 μM): 5.60 ± 0.57 | Cell Cycle Distribution S (HT-29 cells [3]; 100 μM): 4.92 ± 0.00 | Cell cycle arrest, in words (HT-29 cells [3]): significant accumulation of cells in G1 phase | IC50 (HT-29 cells [4]; Homo sapiens): > 100 µM
